Several values for one entry are separate records, joined by “and”; a condition that tells them apart may be missing. Equal entries are not always repeated.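 Assay format: 96-well plates, 48-hour exposure. Here, GI50 denotes the concentration required for 50% inhibition of growth. TGI: concentration producing complete growth inhibition.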
How the values were obtained:
Assay in all cases: growth of human tumour cells (NCI), 48 h
SR leukemia = test system: SR leukemia
HS 578T breast = test system: HS 578T breast
EKVX NSCLC = test system: EKVX NSCLC
HT29 colon = test system: HT29 colon
RXF 393 renal = test system: RXF 393 renal
HCT-15 colon = test system: HCT-15 colon
NCI-H226 lung = test system: NCI-H226 lung

Structure (SMILES) | GI50 (SR leukemia) | TGI (SR leukemia) | GI50 (HS 578T breast) | TGI (HS 578T breast) | GI50 (EKVX NSCLC) | TGI (EKVX NSCLC) | GI50 (HT29 colon) | GI50 (RXF 393 renal) | GI50 (HCT-15 colon) | TGI (HCT-15 colon) | GI50 (NCI-H226 lung) | TGI (NCI-H226 lung) | TGI (HT29 colon) | TGI (RXF 393 renal)
CN(C)c1ccc2c(c1)OC(N)=C(C#N)C2c1ccc2c(c1)CCO2 (stereo unspecified) | < 0.0198 µM | > 48.2 µM | 0.235 µM | > 100 µM | 0.47 µM | > 100 µM | 0.321 µM | 0.255 µM | < 0.0262 µM | > 100 µM | 2.38 µM | > 62.4 µM | – | –
COc1ccc(C(=O)c2cc3c(N)c(C(=O)Nc4cccc5ccccc45)sc3nc2C)cc1 | 0.161 µM | > 50 µM | 0.198 µM | > 50 µM | 0.294 µM | > 50 µM | 0.183 µM | 0.088 µM | 0.192 µM | > 50 µM | 0.332 µM | > 50 µM | > 50 µM | > 50 µM
C1CN(SSN2CCOCC2)CCO1 | 48.9 µM | > 100 µM | 30.3 µM | > 100 µM | > 100 µM | > 100 µM | 19.9 µM | 21.8 µM | 35.6 µM | > 100 µM | > 100 µM | > 100 µM | 43.1 µM | 41.4 µM
CCc1ccc(NC(=O)COC(=O)c2cc([N+](=O)[O-])ccc2Sc2nnnn2C)cc1 | 4.05 µM | > 100 µM | 2.65 µM | 9.36 µM | 29.5 µM | > 100 µM | 11.1 µM | 24 µM | 13 µM | 37.3 µM | 17 µM | 36.1 µM | 29.3 µM | 62 µM
O=c1nc2oc3ccc4ccccc4c3cc-2s1 | 0.458 µM | > 100 µM | 0.528 µM | > 61.8 µM | 59.6 µM | > 100 µM | 18 µM | 1.83 µM | > 45.7 µM | > 100 µM | 17.7 µM | > 100 µM | > 100 µM | 21.6 µM
CCCCN(CCCC)c1ccc(C(=N)c2ccc(N(CCCC)CCCC)cc2)cc1 | 0.287 µM | 1.04 µM | 0.539 µM | 1.58 µM | 0.277 µM | 1.15 µM | 0.282 µM | 0.545 µM | 0.418 µM | 1.62 µM | 0.593 µM | 1.97 µM | 1.03 µM | 1.62 µM
O=C(Nc1ccc(Cl)c(Cl)c1)O/N=C\c1c(Cl)ccc([N+](=O)[O-])c1Cl | 0.878 µM | 5.04 µM | 3.35 µM | 38.7 µM | – | – | 1.91 µM | – | 1.2 µM | 3.48 µM | 3.06 µM | 12.4 µM | 3.53 µM | –
C=C1C(=O)OC2/C=C(/C)C(OC(C)=O)CC(O)/C(C)=C\C(OC(=O)/C(C)=C\C)C12 (stereo unspecified) | – | > 100 µM | – | > 100 µM | – | > 100 µM | – | – | – | > 100 µM | – | > 100 µM | > 100 µM | > 100 µM
COc1ccc2c(c1)C(=O)c1c-2c(N(C)C)nc2ccccc12 | – | – | > 100 µM | > 100 µM | > 100 µM | > 100 µM | > 100 µM | > 100 µM | > 100 µM | > 100 µM | > 100 µM | > 100 µM | > 100 µM | > 100 µM
NC(=O)c1c(NC(=O)c2ccc3c(c2)OCO3)sc2c1CCC(=O)C2 | 0.372 µM | > 100 µM | – | – | – | – | – | 1.88 µM | – | – | – | – | – | 5.36 µM
CCOc1cc2ncc(C#N)c(Nc3ccc(OCc4ccccn4)c(Cl)c3)c2cc1NC(=O)/C=C/CN(C)C | 0.413 µM | > 3.38 µM | 0.54 µM and 0.351 µM | 66.6 µM and > 5.76 µM | 0.0183 µM and 0.0189 µM | 25.6 µM and > 6.84 µM | 0.491 µM and 0.502 µM | 0.421 µM | 0.475 µM and 0.404 µM | 7.97 µM and 5.67 µM | 6.06 µM and 1.69 µM | 26.7 µM and > 7.67 µM | 2.05 µM and 2.62 µM | 2.28 µM
COc1cc([C@H]2OC[C@H]3[C@@H]2CO[C@@H]3c2cc(OC)c3c(c2)OCO3)cc(OC)c1OC | – | > 100 µM | – | > 100 µM | – | > 100 µM | – | – | – | > 100 µM | – | > 100 µM | > 100 µM | –
CCSCCCN(CCCSCC)CCCSCC | – | > 100 µM | – | – | – | – | – | – | – | > 100 µM | – | – | > 100 µM | –
Cc1ccc(S(=O)(=O)Nc2cccc3[nH]c(C(F)(F)F)nc23)cc1 | 0.383 µM | 22 µM | 0.887 µM | 38.2 µM | – | – | 0.351 µM | 1.17 µM | 0.408 µM | > 100 µM | 3.73 µM | 29.1 µM | 7.31 µM | 27.1 µM
C/C=C(\C)C(=O)O[C@H]1C=CC(=O)O[C@@H]1CC[C@H](O)[C@H](C)O | 4.7 µM | 42.8 µM | 34.8 µM | 94.2 µM | 73.9 µM | > 100 µM | 30.6 µM | 49.5 µM | 28.6 µM | > 80.3 µM | 47.4 µM | > 100 µM | 97.5 µM | > 88.7 µM
COc1cccc(-n2ncc3c(N/N=C/c4ccncc4)ncnc32)c1 | 2.12 µM | > 25 µM | 0.322 µM | > 6.41 µM | > 25 µM | > 25 µM | 2.24 µM | 0.672 µM | 3.57 µM | > 25 µM | > 6.17 µM | > 25 µM | > 25 µM | > 25 µM
C/C=C(/COC(C)=O)C(=O)OC1C=C(C=O)C(C)(C)C=C1C (stereo unspecified) | – | > 100 µM | – | > 100 µM | – | > 100 µM | – | – | – | > 100 µM | – | > 100 µM | > 100 µM | –
COc1ccc(OC)c(-c2c(C#N)c(N)nc(N3CCOCC3)c2C#N)c1 | 36.3 µM | > 100 µM | 87.4 µM | > 100 µM | > 100 µM | > 100 µM | > 100 µM | 61.4 µM | > 100 µM | > 100 µM | 85.6 µM | > 100 µM | > 100 µM | > 100 µM
Nc1[nH]nc2nc(-c3cccs3)cc(C(F)(F)F)c12 | > 13.7 µM | > 25 µM | > 25 µM | > 25 µM | – | – | > 25 µM | 18.9 µM | > 25 µM | > 25 µM | > 23.2 µM | > 25 µM | > 25 µM | > 25 µM
CC1=C(CO)C(=O)O[C@@H]([C@@H](C)[C@H]2CC[C@H]3[C@@H]4C[C@@H](O)[C@@]5(O)CC=CC(=O)[C@]5(C)[C@H]4CC[C@]23C)C1 | – | – | – | > 100 µM | – | > 100 µM | – | – | – | 32.5 µM | – | > 100 µM | > 100 µM | 68.6 µM

Reference: PubChem BioAssay (NCI)
